In ChEMBL document CHEMBL4665648, “Potent and selective inhibitors of receptor-interacting protein kinase 1 that lack an aromatic back pocket group” (Bioorg Med Chem Lett, 2019):
Active and inactive are the calls of the source. The calls are words filed in the database; no cut-off is given here.

Experiments:
[1] = molecular target: Vascular endothelial growth factor receptor 2 (Homo sapiens) (UniProt P35968); assay: Inhibition of recombinant human His-tagged KDR (789 to 1356 residues) expressed in baculovirus expression system using Tyr 01 as substrate at 10 uM incubated for 60 mins by Z'-lyte assay relative to control
[2] = molecular target: Receptor-interacting serine/threonine-protein kinase 1 (Mus musculus) (UniProt Q60855); assay: Inhibition of mouse RIPK1 incubated for 2 hrs by fluorescence polarization assay
[3] = Half life in Sprague-Dawley rat at 0.5 mg/kg, iv or 2 mg/kg, po; type: ADME, organism-based; settings: in vivo
[4] = Oral bioavailability in Sprague-Dawley rat at 2 mg/kg; type: ADME, organism-based; settings: in vivo
[5] = molecular target: Interleukin-1 receptor-associated kinase 4 (Homo sapiens) (UniProt Q9NWZ3); assay: Inhibition of recombinant human His-tagged full length IRAK4 expressed in baculovirus expression system using Ser/Thr 07 as substrate at 10 uM incubated for 60 mins by Z'-Lyte assay relative to control
[6] = molecular target: Cyclin-dependent kinase 7/ cyclin H (Homo sapiens) (UniProt P51946+P50613); assay: Inhibition of recombinant human His-tagged full length CDK7/Cyclin H expressed in baculovirus expression system using CDK7/9tide as substrate at 10 uM incubated for 60 mins by Adapta assay relative to control
[7] = molecular target: CDK9/cyclin T1 (Homo sapiens) (UniProt O60563+P50750); assay: Inhibition of recombinant human His-tagged full length CDK9/Cyclin T1 expressed in baculovirus expression system using CDK7/9tide as substrate at 10 uM incubated for 60 mins by Adapta assay relative to control
[8] = molecular target: Casein kinase I isoform gamma-1 (Homo sapiens) (UniProt Q9HCP0); assay: Inhibition of recombinant human GST-tagged full length CK1gamma1 expressed in baculovirus expression system using Ser/Thr 05 as substrate at 10 uM incubated for 60 mins by Z'-Lyte assay relative to control
[9] = molecular target: Calcium/calmodulin-dependent protein kinase type 1D (Homo sapiens) (UniProt Q8IU85); assay: Inhibition of recombinant human His-tagged full length CAMK1delta expressed in baculovirus expression system using Ser/Thr 25 as substrate at 10 uM incubated for 60 mins by Z'-Lyte assay relative to control
[10] = molecular target: Mitogen-activated protein kinase 1 (Homo sapiens) (UniProt P28482); assay: Inhibition of recombinant human GST-tagged full length ERK2 expressed in baculovirus expression system using Ser/Thr 03 as substrate at 10 uM incubated for 60 mins by Z'-Lyte assay relative to control
[11] = molecular target: Ephrin type-A receptor 8 (Homo sapiens) (UniProt P29322); assay: Inhibition of recombinant human GST-tagged EPHA8 (565 to 1005 residues) expressed in baculovirus expression system using Tyr 02 as substrate at 10 uM incubated for 60 mins by Z'-Lyte assay relative to control
[12] = molecular target: Ephrin type-B receptor 1 (Homo sapiens) (UniProt P54762); assay: Inhibition of recombinant human GST-tagged EPHB1 (613 to 881 residues) expressed in baculovirus expression system using Tyr 02 as substrate at 10 uM incubated for 60 mins by Z'-Lyte assay relative to control
[13] = molecular target: Fibroblast growth factor receptor 3 (Homo sapiens) (UniProt P22607); assay: Inhibition of recombinant human His-tagged FGFR3 (399 to 806 residues) expressed in baculovirus expression system using Tyr 04 as substrate at 10 uM incubated for 60 mins by Z'-Lyte assay relative to control
[14] = molecular target: Homeodomain-interacting protein kinase 4 (Homo sapiens) (UniProt Q8NE63); assay: Inhibition of recombinant human N-terminal GST-tagged HIPK4 expressed in baculovirus expression system using Ser/Thr 18 as substrate at 10 uM incubated for 60 mins by Z'-Lyte assay relative to control
[15] = molecular target: Inhibitor of nuclear factor kappa-B kinase subunit beta (Homo sapiens) (UniProt O14920); assay: Inhibition of recombinant human GST-tagged full length IKKbeta expressed in baculovirus expression system using Ser/Thr 05 as substrate at 10 uM incubated for 60 mins by Z'-Lyte assay relative to control
[16] = molecular target: MAP/microtubule affinity-regulating kinase 3 (Homo sapiens) (UniProt P27448); assay: Inhibition of recombinant human GST-tagged full length MARK3 expressed in baculovirus expression system using Ser/Thr 25 as substrate at 10 uM incubated for 60 mins by Z'-lyte assay relative to control
[17] = molecular target: Dual specificity mitogen-activated protein kinase kinase 1 (Homo sapiens) (UniProt Q02750); assay: Inhibition of recombinant human His-tagged full length MEK1 expressed in baculovirus expression system using Ser/Thr 03 as substrate at 10 uM incubated for 60 mins by Z'-lyte assay relative to control
[18] = molecular target: Hepatocyte growth factor receptor (Homo sapiens) (UniProt P08581); assay: Inhibition of recombinant human His-tagged MET (956 to 1390 residues) expressed in baculovirus expression system using Tyr 06 as substrate at 10 uM incubated for 60 mins by Z'-lyte assay relative to control
[19] = molecular target: Phosphatidylinositol 3-kinase C2 domain-containing subunit gamma (Homo sapiens) (UniProt O75747); assay: Inhibition of recombinant human N-terminal GST-tagged PI3K-gamma (468 to 1203 residues) expressed in insect expression system using PI lipid kinase substrate mixture as substrate at 10 uM incubated for 60 mins by Adapta assay relative to control
[20] = molecular target: Protein kinase C delta type (Homo sapiens) (UniProt Q05655); assay: Inhibition of recombinant human GST-tagged full length PKCdelta expressed in insect expression system using Ser/Thr 07 as substrate at 10 uM incubated for 60 mins by Z'-lyte assay relative to control
[21] = molecular target: Receptor-interacting serine/threonine-protein kinase 2 (Homo sapiens) (UniProt O43353); assay: Inhibition of tracer 178 binding to recombinant human His-tagged RIPK2 (1 to 299 residues) expressed in insect expression system at 10 uM incubated for 60 mins by Lanthascreen assay relative to control
[22] = molecular target: Sphingosine kinase 1 (Homo sapiens) (UniProt Q9NYA1); assay: Inhibition of recombinant human GST-tagged full length SPHK1 expressed in baculovirus expression system using sphingosine lipid substrate mixture as substrate at 10 uM incubated for 60 mins by Adapta assay relative to control
[23] = molecular target: Serine/threonine-protein kinase TBK1 (Homo sapiens) (UniProt Q9UHD2); assay: Inhibition of recombinant human GST-tagged full length TBK1 expressed in insect expression system using Ser/Thr 05 as substrate at 10 uM incubated for 60 mins by Z'-Lyte assay relative to control
[24] = molecular target: Tyrosine-protein kinase TXK (Homo sapiens) (UniProt P42681); assay: Inhibition of recombinant human N-terminal GST-tagged TXK (260 to 527 residues) expressed in baculovirus expression system using Tyr 06 as substrate at 10 uM incubated for 60 mins by Z'-Lyte assay relative to control
[25] = molecular target: Serine/threonine-protein kinase mTOR (Homo sapiens) (UniProt P42345); assay: Inhibition of recombinant human GST-tagged mTOR (1360 to 2549 residues) expressed in Escherichia coli expression system using Ser/Thr 11 as substrate at 10 uM incubated for 60 mins by Z'-Lyte assay relative to control

Hepatocyte growth factor receptor (Homo sapiens), sequence (P08581 whole entry, the tested form may be a part): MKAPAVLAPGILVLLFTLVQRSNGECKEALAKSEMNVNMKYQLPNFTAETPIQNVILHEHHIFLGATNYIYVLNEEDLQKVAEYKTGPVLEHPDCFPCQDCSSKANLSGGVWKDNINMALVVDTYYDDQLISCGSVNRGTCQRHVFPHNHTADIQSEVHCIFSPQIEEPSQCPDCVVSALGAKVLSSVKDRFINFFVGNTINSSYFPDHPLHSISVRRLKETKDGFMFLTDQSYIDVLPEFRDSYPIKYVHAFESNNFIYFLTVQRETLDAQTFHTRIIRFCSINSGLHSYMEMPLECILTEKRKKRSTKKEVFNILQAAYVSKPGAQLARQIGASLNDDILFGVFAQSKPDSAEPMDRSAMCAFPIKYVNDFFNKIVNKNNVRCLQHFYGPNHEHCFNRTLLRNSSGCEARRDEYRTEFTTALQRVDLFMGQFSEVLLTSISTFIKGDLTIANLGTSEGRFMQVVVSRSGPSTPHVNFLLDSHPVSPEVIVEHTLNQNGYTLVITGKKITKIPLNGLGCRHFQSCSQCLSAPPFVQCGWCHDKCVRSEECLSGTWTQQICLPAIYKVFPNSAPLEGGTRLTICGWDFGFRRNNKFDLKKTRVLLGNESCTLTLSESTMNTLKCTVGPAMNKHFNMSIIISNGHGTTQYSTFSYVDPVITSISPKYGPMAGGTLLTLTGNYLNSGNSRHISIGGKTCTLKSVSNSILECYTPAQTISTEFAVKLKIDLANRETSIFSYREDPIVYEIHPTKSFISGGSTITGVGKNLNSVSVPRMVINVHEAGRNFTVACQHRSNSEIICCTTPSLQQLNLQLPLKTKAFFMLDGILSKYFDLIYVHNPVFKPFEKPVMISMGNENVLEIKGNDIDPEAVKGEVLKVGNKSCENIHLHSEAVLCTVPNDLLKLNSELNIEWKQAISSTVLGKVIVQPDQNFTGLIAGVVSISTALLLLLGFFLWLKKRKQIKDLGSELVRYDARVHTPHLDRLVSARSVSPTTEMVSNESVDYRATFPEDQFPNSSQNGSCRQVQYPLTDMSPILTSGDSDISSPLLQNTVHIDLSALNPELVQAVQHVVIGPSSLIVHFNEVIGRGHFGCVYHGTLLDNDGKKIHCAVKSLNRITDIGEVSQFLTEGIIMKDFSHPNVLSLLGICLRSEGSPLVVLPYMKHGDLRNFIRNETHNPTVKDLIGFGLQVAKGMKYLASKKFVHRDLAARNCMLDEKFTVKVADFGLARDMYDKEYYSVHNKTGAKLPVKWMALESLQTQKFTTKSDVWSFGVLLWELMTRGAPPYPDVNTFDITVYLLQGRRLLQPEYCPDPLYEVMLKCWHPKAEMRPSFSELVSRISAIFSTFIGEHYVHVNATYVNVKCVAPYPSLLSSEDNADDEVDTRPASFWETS
Serine/threonine-protein kinase TBK1 (Homo sapiens), sequence (Q9UHD2 whole entry, the tested form may be a part): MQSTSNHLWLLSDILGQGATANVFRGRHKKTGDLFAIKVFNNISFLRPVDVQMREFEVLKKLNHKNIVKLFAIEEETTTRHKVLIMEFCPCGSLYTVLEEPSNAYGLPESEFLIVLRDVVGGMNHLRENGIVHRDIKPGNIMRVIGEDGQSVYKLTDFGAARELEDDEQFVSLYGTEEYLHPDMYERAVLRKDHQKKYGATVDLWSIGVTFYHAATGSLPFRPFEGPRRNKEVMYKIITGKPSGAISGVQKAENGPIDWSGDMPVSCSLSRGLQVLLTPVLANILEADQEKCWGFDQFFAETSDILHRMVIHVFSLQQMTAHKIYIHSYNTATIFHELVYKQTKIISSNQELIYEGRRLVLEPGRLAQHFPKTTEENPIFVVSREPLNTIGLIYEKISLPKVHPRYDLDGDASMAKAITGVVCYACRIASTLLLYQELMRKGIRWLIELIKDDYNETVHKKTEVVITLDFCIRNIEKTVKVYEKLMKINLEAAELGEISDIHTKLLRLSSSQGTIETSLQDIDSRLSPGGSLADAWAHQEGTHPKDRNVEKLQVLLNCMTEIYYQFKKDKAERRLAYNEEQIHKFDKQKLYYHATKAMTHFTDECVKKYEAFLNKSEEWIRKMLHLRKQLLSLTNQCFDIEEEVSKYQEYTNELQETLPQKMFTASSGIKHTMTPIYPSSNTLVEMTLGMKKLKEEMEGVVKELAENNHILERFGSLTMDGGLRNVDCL
Fibroblast growth factor receptor 3 (Homo sapiens), sequence (P22607 23-806 limits assumed): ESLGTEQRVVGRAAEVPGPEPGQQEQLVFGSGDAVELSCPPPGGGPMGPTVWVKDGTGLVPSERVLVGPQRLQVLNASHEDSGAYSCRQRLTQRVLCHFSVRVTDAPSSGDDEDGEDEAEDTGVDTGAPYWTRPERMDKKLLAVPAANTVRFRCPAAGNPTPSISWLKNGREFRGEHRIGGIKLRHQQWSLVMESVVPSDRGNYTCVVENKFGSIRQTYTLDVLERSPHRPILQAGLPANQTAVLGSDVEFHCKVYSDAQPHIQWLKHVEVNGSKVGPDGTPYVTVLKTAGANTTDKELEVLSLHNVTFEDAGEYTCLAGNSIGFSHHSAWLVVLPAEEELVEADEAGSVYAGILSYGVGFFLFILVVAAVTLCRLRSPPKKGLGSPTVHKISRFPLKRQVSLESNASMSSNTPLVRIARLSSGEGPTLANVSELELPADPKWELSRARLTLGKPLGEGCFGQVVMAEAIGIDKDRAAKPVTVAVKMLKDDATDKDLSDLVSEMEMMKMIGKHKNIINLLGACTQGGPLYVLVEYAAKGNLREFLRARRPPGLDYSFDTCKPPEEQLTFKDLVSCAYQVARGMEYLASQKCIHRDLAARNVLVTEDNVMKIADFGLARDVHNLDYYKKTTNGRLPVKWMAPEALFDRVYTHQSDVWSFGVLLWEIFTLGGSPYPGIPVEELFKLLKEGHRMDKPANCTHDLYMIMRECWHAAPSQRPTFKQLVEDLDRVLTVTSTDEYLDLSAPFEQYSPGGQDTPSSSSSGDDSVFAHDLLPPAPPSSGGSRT
Casein kinase I isoform gamma-1 (Homo sapiens), sequence (Q9HCP0 whole entry, looked up, canonical isoform): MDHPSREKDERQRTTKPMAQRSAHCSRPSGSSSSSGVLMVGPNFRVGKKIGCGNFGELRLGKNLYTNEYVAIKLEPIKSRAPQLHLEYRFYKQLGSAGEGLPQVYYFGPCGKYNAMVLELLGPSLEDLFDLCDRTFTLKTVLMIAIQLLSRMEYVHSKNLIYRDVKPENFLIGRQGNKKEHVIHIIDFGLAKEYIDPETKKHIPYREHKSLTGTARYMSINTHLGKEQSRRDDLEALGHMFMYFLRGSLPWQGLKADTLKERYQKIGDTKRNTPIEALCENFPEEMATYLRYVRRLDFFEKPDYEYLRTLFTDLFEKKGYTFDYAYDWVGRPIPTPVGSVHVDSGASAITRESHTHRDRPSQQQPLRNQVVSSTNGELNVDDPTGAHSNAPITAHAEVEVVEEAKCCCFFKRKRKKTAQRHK
Tyrosine-protein kinase TXK (Homo sapiens), sequence (P42681 whole entry, the tested form may be a part): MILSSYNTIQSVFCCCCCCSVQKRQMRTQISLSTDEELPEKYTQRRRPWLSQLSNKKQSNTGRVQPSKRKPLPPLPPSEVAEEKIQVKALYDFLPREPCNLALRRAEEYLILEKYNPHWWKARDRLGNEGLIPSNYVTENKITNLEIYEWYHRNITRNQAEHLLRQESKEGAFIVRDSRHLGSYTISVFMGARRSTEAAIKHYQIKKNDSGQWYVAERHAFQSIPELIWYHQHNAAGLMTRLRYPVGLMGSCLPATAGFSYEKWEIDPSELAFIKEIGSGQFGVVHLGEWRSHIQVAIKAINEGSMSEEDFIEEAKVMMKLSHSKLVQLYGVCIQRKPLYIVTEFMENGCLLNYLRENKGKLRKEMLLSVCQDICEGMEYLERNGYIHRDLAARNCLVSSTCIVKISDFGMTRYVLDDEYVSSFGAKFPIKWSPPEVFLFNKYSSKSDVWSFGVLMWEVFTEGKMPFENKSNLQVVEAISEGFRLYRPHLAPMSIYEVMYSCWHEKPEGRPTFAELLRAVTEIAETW
Inhibitor of nuclear factor kappa-B kinase subunit beta (Homo sapiens), sequence (O14920 whole entry): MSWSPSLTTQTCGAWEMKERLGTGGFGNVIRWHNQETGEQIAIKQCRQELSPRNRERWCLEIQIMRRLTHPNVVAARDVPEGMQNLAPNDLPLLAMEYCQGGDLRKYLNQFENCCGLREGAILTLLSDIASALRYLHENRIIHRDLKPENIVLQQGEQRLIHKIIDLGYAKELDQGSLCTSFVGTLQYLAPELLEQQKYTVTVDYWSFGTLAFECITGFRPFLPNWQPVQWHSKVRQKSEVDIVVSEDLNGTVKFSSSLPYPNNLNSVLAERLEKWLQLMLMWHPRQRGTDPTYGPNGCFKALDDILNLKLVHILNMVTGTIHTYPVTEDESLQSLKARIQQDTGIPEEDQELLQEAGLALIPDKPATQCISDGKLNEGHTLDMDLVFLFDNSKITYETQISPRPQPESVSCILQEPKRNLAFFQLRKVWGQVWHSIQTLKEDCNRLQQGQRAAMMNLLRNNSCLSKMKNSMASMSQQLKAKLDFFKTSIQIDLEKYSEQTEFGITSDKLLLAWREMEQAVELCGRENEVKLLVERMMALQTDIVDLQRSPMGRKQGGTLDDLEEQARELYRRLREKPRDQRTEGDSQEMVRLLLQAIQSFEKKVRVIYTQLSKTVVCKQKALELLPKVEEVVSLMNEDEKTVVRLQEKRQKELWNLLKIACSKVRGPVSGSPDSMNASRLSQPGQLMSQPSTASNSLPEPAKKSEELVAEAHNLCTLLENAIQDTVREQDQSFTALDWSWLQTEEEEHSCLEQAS
Sphingosine kinase 1 (Homo sapiens), sequence (Q9NYA1 whole entry): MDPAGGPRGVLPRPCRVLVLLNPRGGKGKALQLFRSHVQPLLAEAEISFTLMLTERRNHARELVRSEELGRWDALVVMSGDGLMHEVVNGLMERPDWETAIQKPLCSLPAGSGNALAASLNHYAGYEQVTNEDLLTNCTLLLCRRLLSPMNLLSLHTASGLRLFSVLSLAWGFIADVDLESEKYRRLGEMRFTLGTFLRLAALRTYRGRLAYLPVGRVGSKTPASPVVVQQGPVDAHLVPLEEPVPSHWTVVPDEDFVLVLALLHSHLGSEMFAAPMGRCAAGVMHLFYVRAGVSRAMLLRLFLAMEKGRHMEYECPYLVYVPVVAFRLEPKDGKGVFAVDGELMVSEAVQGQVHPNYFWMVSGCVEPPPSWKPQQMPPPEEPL

Compound: CN1C(=O)[C@@H](NC(=O)c2n[nH]c3ncc(C(F)(F)C(F)(F)F)cc23)COc2ccccc21
- inhibition [1]: 8%
- inhibition [2]: inactive
- half-life [3]: 288 min
- bioavailability [4]: 63%
- inhibition [5]: 6.5%
- inhibition [6]: 14.5%
- inhibition [7]: 6%
- inhibition [8]: 5%
- inhibition [9]: 5%
- inhibition [10]: 7%
- inhibition [11]: 0%
- inhibition [12]: 2%
- inhibition [13]: 0.5%
- inhibition [14]: 17.5%
- inhibition [15]: 0.5%
- inhibition [16]: -3.5%
- inhibition [17]: -6.5%
- inhibition [18]: 4.5%
- inhibition [19]: -5%
- inhibition [20]: 0.5%
- inhibition [21]: -1%
- inhibition [22]: -8%
- inhibition [23]: 1.5%
- inhibition [24]: 8.5%
- inhibition [25]: 1.5%
